According to US10793520B2, “Sulfonylaminobenzamide compound and pest control agent” (Nippon Soda Co., Ltd., priority 2016, dated 2020):

Columns and labels:
[1] = system: Mythimna separata; assay: Efficacy test against Mythimna separata (treated artificial feed); settings: in vivo
Procedure, shortened: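 Second-instar larvae (2 per area) were given artificial feed mixed with a 5% active-constituent emulsion in DMF with polyoxyethylene alkyl aryl ether. They were kept sealed at 25 °C. Mortality (dead/tested ×100) and feed consumption were scored on day 5, with a compound-free emulsion as control.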

[2] = system: Ascaridia galli; assay: Efficacy test against Ascaridia galli (in vitro, L3 larvae, MEC); settings: activity against at least one type of target parasitic worm: Ascaridia galli L3 or Oesophagostomum dentatum L3/L4
Description: Using the gut-welling larval stages of two parasitic worms: namely, the third stage larvae (L3) of Ascaridia galli, and the third and fourth stage larvae (L3 and L4 respectively) of Oesophagostomum dentatum, the bioactivity of compounds of the present invention were investigated in vitro. When conducting these tests, DMSO solutions of the compounds of the present invention were prepared at various concentrations and incubated in the wells of a 96-well microtiter plate. Subsequently, 20 parasitic worm larvae were inoculated into each well. The bioactivity was determined by inspection under a microscope. The inspection under a microscope included evaluations of the mortality rate, injury, motility, development progression, and neutral red uptake by the larvae compared with a DMSO control.

## O=C(Nc1ccc(F)c(C(F)(F)F)c1)c1ccc(OC(F)(F)F)cc1NS(=O)(=O)C(F)(F)F [a-25]
[1]
  mortality rate against Mythimna separata, or amount of feed consumed relative to control: 100%, or the amount of feed consumed was 10% or less
[2]
  MEC (minimum effective concentration): ≤ 25 µM
